The text below walks through data of US11827628B2, “Compositions and methods for inhibition of the JAK pathway” (Rigel Pharmaceuticals, Inc., priority 2005, dated 2023).

pIC50: −log10 of the molar value. Like-named read-outs stand apart in the source and are kept apart here.

Experiment [1] deals with up-regulation of ICAM-1 (CD54) by IFNγ in A549 lung epithelial cells. Description: A549 Epithelial Line Stimulated with IFNγ (ICAM-1 surface expression, FACS). The class given is cell-based, human. To be noted: ICAM-1 expression by FACS, read-out: IC50, Example 43. The essentials: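 ICAM-1 (CD54) flow cytometry on live-gated A549 cells, geometric mean versus dose giving EC50. Cells received IFNγ at 75 ng/mL for 24 h after a 1 h compound pre-treatment spanning 30 μM to 14 nM in medium with 5% FBS and 0.3% DMSO.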
Background: In flow cytometry, cells or beads pass a laser one at a time.

The test system of a further experiment is Primary human T-cells. The experiment in a line: Primary Human T-Cell Proliferation Assay Stimulated with IL-2 (CellTiter-Glo). Particulars: read-out: IC50, Example 42. The class given is cell-based. The method, boiled down: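 IC50 derived from CellTiter-Glo ATP signal after 72 hours of IL-2-driven proliferation at 37° C. Cells: primary human T-cells from blood, stimulated beforehand 3-4 days on anti-CD3/anti-CD28 with IL-2, then rested from IL-2 before compound exposure in duplicate; IL-2-free wells served as unstimulated control.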
For orientation: Cellular ATP, detected with luciferase, serves as a proxy for viable cell number.

The mark [2] stands for this setting: A549 epithelial line stimulated with IFNγ.
Where [3] appears, read: primary human T-cell proliferation stimulated with IL-2.

A word on the pIC50: it is the negative decadic logarithm of the IC50, by convention in mol/L. In the case of `Cc1ccc(Nc2ncc(F)c(Nc3ccc(NC(=O)CC#N)c(Cl)c3)n2)cc1S(N)(=O)=O` [Compound I-83, N2-(3-Aminosulfonyl-4-methylphenyl)-N4-[3-chloro-4-(N-cyanoacetyl)aminophneyl]-5-fluoro-2,4-pyrimidinediamine], the pIC50 in experiment [1] (setting [2]) was 4.83; in the experiment with Primary human T-cells (setting [3]), 5.76.

Regarding `Cc1cc(Nc2nc(Nc3cccc(S(N)(=O)=O)c3)ncc2F)cc(C)c1OCC(N)=O` [Compound I-93, N4-(4-Aminocarbonylmethoxy-3,5-dimethyl)phenyl-N2-(3-aminosulfonyl)phenyl-5-fluoro-2,4-pyrimidinediamine], the figures for the pIC50 (in experiment [1] (setting [2]); in the experiment with Primary human T-cells (setting [3])) were 4.62 and 5.93, respectively.

Turning to `CCC(=O)NS(=O)(=O)c1cccc(Nc2ncc(F)c(Nc3ccc(OCc4nc(C)no4)cc3)n2)c1` [Compound I-273], the pIC50 is 4.89 in experiment [1] (setting [2]) and 6.71 in the experiment on Primary human T-cells (setting [3]).

As to `CNS(=O)(=O)c1cc(Nc2ncc(F)c(Nc3ccc(Cc4ccncc4)cc3)n2)ccc1C` [III-75, 5-Fluoro-N2-[3-(N-methylaminosulfony)-4-methylphenyl]-5-fluoro-N4-[4-(4-pyridinylmethyl)phenyl]-2,4-pyrimidinediamine], the pIC50 in experiment [1] (setting [2]) is 5.00; in the experiment on Primary human T-cells (setting [3]) it was 6.66.

`NS(=O)(=O)c1cccc(Nc2ncc(F)c(Nc3ccc(Cn4ccnc4)cc3)n2)c1` [III-81, N2-(3-Aminosulfonylphenyl)-5-fluoro-N4-[4-(1-imidazolylmethyl)phenyl]-2,4-pyrimidinediamine]: the results for the pIC50 (in experiment [1] (setting [2]); in the experiment with Primary human T-cells (setting [3])) were 4.32 and 6.69, respectively.

For `Cc1ccc(Nc2ncc(F)c(Nc3ccc(Cn4ccnc4)cc3)n2)cc1S(N)(=O)=O` [III-82, N2-(3-Aminosulfonyl-4-methylphenyl)-5-fluoro-N4-[4-(1-imidazolylmethyl)phenyl]-2,4-pyrimidinediamine], the pIC50 in experiment [1] (setting [2]) is 4.62; in the experiment on Primary human T-cells (setting [3]) it was 6.80.

Consider `Cc1ccc(Nc2ncc(F)c(Nc3ccc4c(c3)CCN4S(C)(=O)=O)n2)cc1S(N)(=O)=O` [VII-61, N2-(3-Aminosulfonyl-4-methylphenyl)-5-fluoro-N4-[4-(1-methylsulfonyl)indolin-5-yl]-2,4-pyrimidinediamine], for which the pIC50 was 5.57 in experiment [1] (A549 cells stimulated with IFNγ) and 6.85 in the experiment with Primary human T-cells (primary human T-cells stimulated with IL-2, proliferation).
